This note sets out measurements from US20070238755A1, “Methods to treat and/or prevent radiation- and/or chemical-induced toxicity in non-malignant tissue” (priority 2005, published 2007).

The structures appear in SMILES notation.

What all share (format): in vivo, male Sprague-Dawley rats
For test [1], the system named is irradiated rats (locally irradiated scrotal hernia containing a loop of distal ileum). The experiment in a line: Structural radiation injury (Radiation Injury Score) in the scrotal hernia intestinal fibrosis model, Experiment 1. The settings on record: 10 or 15 mg/kg/day s.c. for 24 days (Day -1 to Day 23); 5 Gy for 9 days; compared to vehicle; p=0.003 Jonckheere-Terpstra test; FIG. 1. The text has this:
(§1) A particularly relevant animal model for radiation toxicity is described in Wang et al., J Thromb Haemost, 2(11):2027-2035 (2004)). In brief, a “scrotal hernia” containing a 4 cm loop of distal ileum is surgically created in male Sprague-Dawley rats. After a 3 week recovery period, the scrotal hernia is irradiated locally without exposing the rest of the animal to ionizing radiation.
(§2) Scrotal hernias were created in rats which subsequently received one of three different treatments subcutaneously: (i) vehicle control (i.e., 0.4% methyl cellulose); (ii) 10 mg/kg/day of Formula 2; and (iii) 15 mg/kg/day of Formula 2. […] After an additional 2 week observation period following treatment, the rats were euthanized and assessed for radiation toxicity using these endpoints: structural radiation injury, immunohistochemistry (e.g., neutrophil infiltration, collagen type III deposition, smooth muscle cell proliferation, extracellular matrix-associated TGF-β immunoreactivity, collagen type I deposition, macrophages (ED-2)), and morphomety.
Structural radiation injury was assessed in hematoxylin-eosin-stained sections using a radiation injury score system previously described (see, Langberg et al., Acta Oncol, 31(7):781-787 (1992); and Hauer-Jensen et al., Acta Radiol Oncol, 22(4):299-303 (1983)). […]

Test [2] has the same test system. The experiment in a line: Quantitative immunohistochemistry of irradiated intestine, intestinal fibrosis Experiment 1.
Description: as §1
Scrotal hernias were created in rats which subsequently received one of three different treatments subcutaneously: (i) vehicle control (i.e., 0.4% methyl cellulose); (ii) 10 mg/kg/day of Formula 2; and (iii) 15 mg/kg/day of Formula 2. The treatments were administered for 24 days total, starting the day before irradiation (i.e., from Day-1 to Day 23). Beginning on Day 1, the scrotal hernia of each animal was irradiated locally by exposure to 5 Gy for 9 days. After an additional 2 week observation period following treatment, the rats were euthanized and assessed for radiation toxicity using these endpoints: structural radiation injury, immunohistochemistry (e.g., neutrophil infiltration, collagen type III deposition, smooth muscle cell proliferation, extracellular matrix-associated TGF-β immunoreactivity, collagen type I deposition, macrophages (ED-2)), and morphomety.
Quantitative immunohistochemistry was used to determine: (i) neutrophil infiltration by mycloperoxidase stalninig; (ii) intestinal smooth muscle cell proliferation using proliferation cell nuclear antigen (PCNA) labeling index; (iii) collagen deposition by staining for collagen types I and III; (iv) extracellular matrix-associated transforming growth factor (TGF)-β, and (v) macrophage ED-2. Immunohistochemical staining was performed with appropriate positive and negative controls using the avidin-biotin complex (ABC) technique previously described by Wang et al., J Thromb Haemost, 2(11):2027-2035 (2004). Primary antibodies, catalog numbers, incubation times, dilutions, and companies were: polyclonal antimyeloperoxidase antibody (A0398, 2 h, 1:100; Dako, Carpinteria, Calif., USA); monoclonal anti-PCNA antibody (NA03, 2 h, 1:100; Calbiochem, Cambridge, Mass., USA); polyclonal antibodies against collagen type I (1310-01, 2 h, 1:100 dilution; Southern Biotechnology Associates, Birmingham, Alab., USA); collagen type III (1330-01, 2 h, 1:100 dilution, Southern Biotechnology Associates); polyclonal rabbit anti-TGF-P antibody (AB-100-NA, 2 h, 1:300 dilution; R&D, Minneapolis, Minn., USA); and ED-2 (MCA342, 2 h, 1:100 dilution, Serotec, Rahway, N.C., USA).
Computerized image analysis was performed as previously described (see, Wang et al., Thromb Haemost, 87(1):122-128(2002); Wang et al., J Pharmacol Exp Ther, 297(1):35-42 (2001)). Neutrophil infiltration was assayed by identifying myeloperoxidase-positive cells as previously described (see, Wang et al., Thromb Haemost, 87(1):122-128(2002)). Areas positive for collagen types I and III deposition were measured as previously described 'see, Raviv et al., World J Urol, 15(l1):50-55 (1997); and Wang et al., Thromb Haemost, 87(1):122-128(2002)). Extracellular matrix-associated TGF-β immunoreactivity was measured as previously described (see, Richter et al., Radiother Oncol, 39(3):243-251 (1996)).
Differences in endpoints as a function of drug treatment (PAR-1 inhibitor vs. vehicle) were assessed using fixed-factor analysis of variance and post hoc comparisons with Newman-Keul's test (NCSS2000 for Windows 95, NCSS, Kaysville, Utah, USA). Univariate comparisons were performed with the Mann-Whitney U-test using StatXact 5 (Cytel Software, Cambridge, Mass., USA), a software package for exact non-parametric inference.

For test [3] the test system is unchanged. The experiment in a line: Morphometry of irradiated intestine, intestinal fibrosis Experiment 1. As to conditions: trend is worded for vehicle-treated animals as compared to Formula 2-treated animals.
Description: as §1
as §2, with “2. The treatments were administered for 24 days total, starting the day before irradiation (i.e., from Day-1 to Day 23).” for “2.”
The thickness of the intestinal wall proper (submucosa, muscularis externa, and subserosa, but excluding the mucosa) was measured with an eyepiece linear microruler. […]

[4] abbreviates: trend is worded for vehicle-treated animals as compared to Formula 2-treated animals, p=0.4 Jonckheere-Terpstra test.

On to `CCOC(=O)N[C@@H]1CC[C@@H]2[C@@H](C1)C[C@H]1C(=O)O[C@H](C)[C@H]1[C@H]2/C=C/c1ccc(-c2ccccn2)cn1` [Formula 2], for which the “structural radiation injury as measured by Radiation Injury Score” value in test [1] is recorded as “less”. Also, in test [2] (10 or 15 mg/kg/day s.c. for 24 days, 5 Gy for 9 days, compared to vehicle, p=0.005 Jonckheere-Terpstra test, FIG. 3), the “collagen type III deposition” value is listed as “reduced”. The “smooth muscle cell proliferation (PCNA positive cells)” value in test [2] (10 or 15 mg/kg/day s.c. for 24 days, 5 Gy for 9 days, compared to vehicle, p=0.04 Jonckheere-Terpstra test, FIG. 4) was “reduced”. The “neutrophil infiltration (myeloperoxidase-positive cells)” value in test [2] (10 or 15 mg/kg/day s.c. for 24 days, 5 Gy for 9 days, compared to vehicle, p=0.05 Jonckheere-Terpstra test, FIG. 2) is given as “reduced”. In addition, the “extracellular matrix-associated TGF-β immunoreactivity” value in test [2] (trend is worded for vehicle-treated animals as compared to Formula 2-treated animals, p=0.1 Jonckheere-Terpstra test) was “trend toward increased levels”. In addition, in test [2] (setting [4]), the “collagen type I deposition” value is given as “trend toward increased levels” and the “macrophages (ED-2)” value is on record as “trend toward increased levels”. Further, the “intestinal wall thickening (thickness of the intestinal wall proper)” value in test [3] (p=0.2 Jonckheere-Terpstra test) is “trend toward intestinal wall thickening in vehicle-treated animals”. Moreover, the serosal thickening result in test [3] (p=0.3 Jonckheere-Terpstra test) is “trend toward serosal thickening in vehicle-treated animals”.
